Experimental data taken from patent US7326689B2, “Pseudomycins useful against plant diseases” (Eli Lilly and Company, priority 2000, dated 2008).
Several values for one entry are separate records, joined by “and”; a condition that tells them apart may be missing. Identical values can stand only once.

Key:
Test in all cases: Antifungal growth assay in potato dextrose broth, 24-well
Format in all cases: cell-based
Drechslera portulacae = conditions: 3x assays
Description: (§1) Fungi to be tested were propagated on potato dextrose agar (PDA) plates at room temperature. Stock solutions of pseudomycins and depsipeptide were suspended in dimethylsulfoxide (DMSO) (Sigma) at 5 mg/ml and stored at −20C. Serial dilutions of compounds were done the day of the experiment. All serial dilutions were made in DMSO. […] These are noted in the raw data section.
(§2) Assays were performed in 24-well cell culture clusters (Costar 3524), with 990 ul potato dextrose broth (PDB, Difco) and 10 ul of the compound to be tested in each well. Initial concentrations tested were 50-1.56 ug/ml (final concentration of pseudomycin). Actual concentrations of pseudomycins tested were 50, 25, 12.5, 6.25, 3.12 and 1.56 ug/ml. Each well was inoculated with the appropriate fungus. Unless noted, the fungal inoculum consisted of an ˜4 mm^2 piece of PDA with fungal mycelium. The exceptions were as follows. Ustilago maydis: this fungus grows much like a yeast on PDA, and cells were scraped from the PDA stock plate, resuspended in PDB and 10 ul inoculum added to each well. Monilinia sp.: this fungal mycelium grows as a very loose sheet on top of PDA and would not adhere to agar blocks. Fungal mycelium was ground with a metal rod in 500 ul PDB and 10 ul inoculum was added to each well. Mycosphaeella fijiensis, Septoria passerinii, Septoria triticii: these fungi all grow very slowly and the results were difficult to score if a small piece of agar with fungal mycelium on it was used as an inoculum. For these fungi, the mycelium was ground with a metal rod in 500 ul PDB and 10 ul inoculum was added to each well.
(§3) Wells were scored for fungal growth at two days and five days. Some slow growing fungi were scored at later days for growth because assessment was not possible at two or five days. Growth was scored by comparison to a control consisting of fungus inoculated into 990 ul potato dextrose broth and 10 ul of DMSO (Dimethylsulfoxide). An additional control consisting of fungal inoculum in PDB only was performed to ensure that the DMSO was not inhibitory to fungal growth.
(§4) For assays that were repeated, new stock solutions were made from a second shipment of pseudomycins. Note that pseudomycin B′ and depsipeptide stock solutions were remade from first shipment materials because these were not included in the second shipment. […] Actual concentrations of pseudomycins tested were 2, 1, 0.5, 0.25, 0.125 and 0.0625 ug/ml. A-PO4 and A-FB=pseudomycin A phosphate salt and free base respectively.
(§5) Table 2: Two day results—concentration indicated is lowest level of compound (ug /ml) that results is no growth. NI, no inhibition; p (partial), at least 50% inhibited; -, not determined. If number of assays was greater than one, number of assays performed on the fungus is noted in parentheses. For several slow-growing fungi, days elapsed before observation (if different than two) are noted.
(§6) Table 3: Five day results—concentration indicated is lowest level of compound (ug /ml) that results in no growth. NI, no inhibition; p (partial), at least 50% inhibited; -, not performed on the fungus is noted in parentheses. For several slow-growing fungi, days elapsed before observation (if different than five) are noted.

Geotrichim candidum = conditions: 3x assays
Description: as §1, §2, §3, §4, §5, §6

Monilinia sp. = conditions: 2x assays
Description: as §1, §2, §3, §4, §5, §6

[1] = tested on: Mycosphaeella fijiensis (8088/88); conditions: 3x assays
Description: as §1, §2, §3, §4, §5, §6

[2] = tested on: Mycosphaeella fijiensis (Sigatoka); conditions: 3x assays
Description: as §1, §2, §3, §4, §5, §6

Penicillium roqueforti = conditions: 3x assays
Description: as §1, §2, §3, §4, §5, §6

Rhizoctonia solani = conditions: 2x assays
Description: as §1, §2, §3, §4, §5, §6

Septoria passerinii = conditions: 3x assays
Description: as §1, §2, §3, §4, §5, §6

Septoria tritici = conditions: 3x assays
Description: as §1, §2, §3, §4, §5, §6

Ustilago maydis = conditions: 3x assays
Description: as §1, §2, §3, §4, §5, §6

Phytophthora cactorum = tested on: Phytophthora cactorum; design: key: NI, no inhibition; p (partial), at least 50% inhibited
Method in brief: (§7)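 Growth inhibition in broth culture was assessed visually against a vehicle control. Final pseudomycin concentrations ran from 50 to 1.56 ug/ml. The lowest level without growth was recorded at days 2 and 5.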

Phytophthora ultimum = tested on: Phytophthora ultimum; design: key: NI, no inhibition; p (partial), at least 50% inhibited
Method in brief: as §7

Stagonospora nodorum = tested on: Stagonospora nodorum; design: key: NI, no inhibition; p (partial), at least 50% inhibited
Method in brief: as §7

Tapesia yallundae = tested on: Tapesia yallundae; design: key: NI, no inhibition; p (partial), at least 50% inhibited; conditions: 2x assays
Method in brief: as §7

Verticillium dahliae = tested on: Verticillium dahliae; design: key: NI, no inhibition; p (partial), at least 50% inhibited; conditions: 2x assays
Method in brief: as §7

[3] = Table 2 (two day results), observed at 7 day
[4] = Table 3 (five day results), observed at 21 days

| Substance | lowest level of compound that results in no growth (Drechslera portulacae; two day results) [µg/mL] | lowest level of compound that results in no growth (Geotrichim candidum; five day results) [µg/mL] | lowest level of compound that results in no growth (Geotrichim candidum; two day results) [µg/mL] | lowest level of compound that results in no growth (Monilinia sp.; five day results) [µg/mL] | lowest level of compound that results in no growth (Monilinia sp.; two day results) [µg/mL] | lowest level of compound that results in no growth [1, 3] [µg/mL] | lowest level of compound that results in no growth [1, 4] [µg/mL] | lowest level of compound that results in no growth [2, 3] [µg/mL] | lowest level of compound that results in no growth [2, 4] [µg/mL] | lowest level of compound that results in no growth (Penicillium roqueforti; five day results) | lowest level of compound that results in no growth (Penicillium roqueforti; two day results) [µg/mL] | lowest level of compound that results in no growth (Rhizoctonia solani; five day results) | lowest level of compound that results in no growth (Rhizoctonia solani; two day results) | lowest level of compound that results in no growth (Septoria passerinii; five day results) | lowest level of compound that results in no growth (Septoria passerinii; two day results) [µg/mL] | lowest level of compound that results in no growth (Septoria tritici; five day results) [µg/mL] | lowest level of compound that results in no growth (Septoria tritici; two day results) [µg/mL] | lowest level of compound that results in no growth (Ustilago maydis; five day results) [µg/mL] | lowest level of compound that results in no growth (Ustilago maydis; two day results) [µg/mL] | lowest level of compound that results in no growth (Phytophthora cactorum; five day results) | other results |
| --- | --- | --- | --- | --- | --- | --- | --- | --- | --- | --- | --- | --- | --- | --- | --- | --- | --- | --- | --- | --- | --- |
| pseudomycin A-PO4 | 0.06 | 6.25 | 12.5 | 12.5 | 12.5 | 0.12 | 0.25 | 1 | 1 | 3.12 µg/mL | 0.5 | 12.5 µg/mL | 6.25 µg/mL | 0.12 µg/mL | 0.125 | 0.25 | 0.25 | 1 | 0.5 | NI | lowest level of compound that results in no growth (Drechslera portulacae; Table 3 (five day results), observed at 9 day, listed as A-PO4): 0.06 µg/mL; lowest level of compound that results in no growth (Drechslera portulacae; Table 3 (five day results), observed at 9 day, listed as pseudomycin A (PO4)): 0.0625 µg/mL; lowest level of compound that results in no growth (Phytophthora cactorum; two day results): NI; lowest level of compound that results in no growth (Phytophthora ultimum; five day results): NI; lowest level of compound that results in no growth (Phytophthora ultimum; two day results): NI; lowest level of compound that results in no growth (Stagonospora nodorum; five day results): NI; lowest level of compound that results in no growth (Stagonospora nodorum; two day results): NI; lowest level of compound that results in no growth (Tapesia yallundae; five day results): 50 µg/mL; lowest level of compound that results in no growth (Tapesia yallundae; two day results): 25 µg/mL; lowest level of compound that results in no growth (Verticillium dahliae; five day results): p at 50; lowest level of compound that results in no growth (Verticillium dahliae; two day results): p at 50 |
| Pseudomycin C′ | 0.05 | 6.25 | 1.56 | 6.25 | 3.12 | 0.125 | 0.25 | 1.56 | 1.56 | p at 50 | 1.56 | p at 50 | p at 50 | 0.0625 µg/mL and 0.06 µg/mL | 0.06 | 0.25 | 0.125 | 0.25 | 0.25 | NI | lowest level of compound that results in no growth (Drechslera portulacae; Table 3 (five day results), observed at 9 day): 0.5 µg/mL; lowest level of compound that results in no growth (Phytophthora cactorum; two day results): NI; lowest level of compound that results in no growth (Phytophthora ultimum; five day results): NI; lowest level of compound that results in no growth (Phytophthora ultimum; two day results): NI; lowest level of compound that results in no growth (Stagonospora nodorum; five day results): NI; lowest level of compound that results in no growth (Stagonospora nodorum; two day results): NI; lowest level of compound that results in no growth (Tapesia yallundae; five day results): NI; lowest level of compound that results in no growth (Tapesia yallundae; two day results): 6.25 µg/mL; lowest level of compound that results in no growth (Verticillium dahliae; five day results): p at 50; lowest level of compound that results in no growth (Verticillium dahliae; two day results): p at 50 |
